Experiments:
[1] = system: platinum-resistant ovarian cancer; conditions: cited from earlier work
[2] = system: HCT-116 human colorectal cancer cell line; assay: IC50 in HCT-116 human colorectal cancer cell line; type: cell-based; conditions: for IC50: Homo sapiens
Experimental: Each of the cryptophycin analogs was assessed using a zone assay as a relative comparison of potency over a variety of cell lines (see Table 1), and the IC50 for each analog was determined in the HCT-116 human colorectal cancer cell line.

SMILES | IC50 [2] | also measured
COc1ccc(C[C@H]2NC(=O)/C=C/C[C@@H]([C@H](C)[C@H]3O[C@@H]3c3ccccc3)OC(=O)[C@H](CC(C)C)OC(=O)C(C)(C)CNC2=O)cc1Cl [cryptophycin 52] | – | dose-limiting toxicity ([1]; clinical trials): dose-limiting peripheral neuropathy; clinical outcome ([1]; platinum-resistant ovarian cancer): significant disease stabilization
COc1ccc(C[C@H]2NC(=O)/C=C/C[C@@H]([C@H](C)/C=C/c3cccnc3)OC(=O)[C@H](CC(C)C)OC(=O)[C@H](C)CNC2=O)cc1Cl [3 pyridyl, (3S,6R,10R,16S,E)-10-(3-chloro-4-methoxybenzyl)-3-isobutyl-6-methyl-16-((R,E)-4-(pyridin-3-yl)but-3-en-2-yl)-1,4-dioxa-8,11-diazacyclohexadec-13-ene-2,5,9,12-tetraone] | 0.86 nM | –
COc1ccc(C[C@H]2NC(=O)/C=C/C[C@@H]([C@H](C)/C=C/c3ccccn3)OC(=O)[C@H](CC(C)C)OC(=O)[C@H](C)CNC2=O)cc1Cl [2 pyridyl, (3S,6R,10R,16S,E)-10-(3-chloro-4-methoxybenzyl)-3-isobutyl-6-methyl-16-((R,E)-4-(pyridin-2-yl)but-3-en-2-yl)-1,4-dioxa-8,11-diazacyclohexadec-13-ene-2,5,9,12-tetraone] | 102 nM | –
COc1ccc(C[C@H]2NC(=O)/C=C/C[C@@H]([C@H](C)/C=C/c3ccncc3)OC(=O)[C@H](CC(C)C)OC(=O)[C@H](C)CNC2=O)cc1Cl [4 pyridyl, (3S,6R,10R,16S,E)-10-(3-chloro-4-methoxybenzyl)-3-isobutyl-6-methyl-16-((R,E)-4-(pyridin-4-yl)but-3-en-2-yl)-1,4-dioxa-8,11-diazacyclohexadec-13-ene-2,5,9,12-tetraone] | 0.51 nM | –
COc1ccc(C[C@H]2NC(=O)/C=C/C[C@@H]([C@H](C)/C=C/c3cnn(C)c3)OC(=O)[C@H](CC(C)C)OC(=O)[C@H](C)CNC2=O)cc1Cl [4 methyl pyrazole, (3S,6R,10R,16S,E)-10-(3-chloro-4-methoxybenzyl)-3-isobutyl-6-methyl-16-((R,E)-4-(1-methyl-1H-pyrazol-4-yl)but-3-en-2-yl)-1,4-dioxa-8,11-diazacyclohexadec-13-ene-2,5,9,12-tetraone] | – | potency in words [2]: low pico-molar

Reference: US11530204B2, “Biocatalytic synthesis of cryptophycin anticancer agents” (priority 2019, dated 2022)
